We go through one molecule from patent US12465584B2, “Agent for elevating nitric oxide concentration” (KYOWA HAKKO BIO CO., LTD., priority 2013, dated 2025).

For the assay, the system named is NOx concentration in blood. To be noted: male SD rats, blood over 4 hours after last administration, FIG. 1.

Where two headings read alike, the source gives them in different places.

In the case of `N[C@@H](CCC(=O)N[C@@H](CS)C(=O)NCC(=O)O)C(=O)O` [glutathione, γ-L-Glu-L-Cys-Gly], the “amount of increase in the NOx concentration in blood plasma from the baseline” value (25 mg/kg/day reduced glutathione orally once a day for three days, compared to control group) is recorded as “same tendency” and the “amount of increase in the NOx concentration in blood plasma from the baseline” value (50 mg/kg/day reduced glutathione orally once a day for three days, compared to control group (P<0.05)) is given as “significantly increased”.
